Results published in patent publication US20230383264A1, “FULLY FUNCTIONAL CONTRACTILE GASTROINTESTINAL ORGANOID SYSTEM, GENERATED FROM HUMAN-INDUCED PLURIPOTENT STEM CELLS TO DEVELOP A HIGH THROUGHPUT SYSTEM FOR DETECTING EXISTING AND NEWLY-EMERGING PATHOGENS, DRUGS, TOXICITY AND THEREOF” (NeyroblastGX LLC,, priority 2022, published 2023).
Where “and” joins values, the source holds several entries; their conditions need not be identical. Equal entries are not always repeated. Entries after “also recorded” stand apart in the source; their conditions may differ.

Key:
Assay type in all cases: cell-based, human
[1] = tested on: GIO (gastrointestinal organoids from HiPSCs); assay: 10-plex proinflammatory cytokine array of LPS-treated GIO media
Description: 10-plex proinflammatory cytokine (ProC) measurement of LPS and pathogen/non-pathogenic bacterial treated GIO media (supernatant) was assayed using the Luminex multiplexing cytokine suspension array technology (Immune Monitoring Core Facility, USC, CA). Measurements of IL-2, IL-6, IL-8, IL-10, IL-13, TNF-α, INF-γ, MIP-1α and MIP-1β in the supernatant were analyzed using a MilliPlex MAP human cytokine/chemokine magnetic bead panel (MilliporeSigma, St. Louis, MO). Plates were read on a Bio-Plex 200 System using Bio-Plex Manager software version 6.0 (BioRad, Hercules, CA). Five (5) parameter logistic regression algorithms were used to determine cytokine concentrations based on provided cytokine standards and averages from triplicate-wells. Each ProC standard was measured using six known concentrations (10.0 ng, 2.0 ng, 0.4 ng, 0.08 ng, 0.016 ng, 0.0032 ng), and most regression values reached >0.99. Limit of detection: The lower limit of quantitation (LLOQ) for each ProCs are IL-13 (0.257 pg/mL), IL-1β (0.485 pg/mL), IL-2 (0.157 pg/mL), IL-8 (0.299 pg/mL), TNF-α (0.382 pg/mL), IL-6 (0.179 pg/mL), INF-γ (0.562 pg/mL), IL-10 (1.510 pg/mL), MIP-1α (0.273 pg/mL), MIP-1β ([…]). We quantified the UT-GIO, LPS-treated Sus-GIO, and Cryo-GIO with or without pathogenic and non-pathogenic bacteria. After analyzing ProC in each treatment, we conducted statistical analyses to determine the significance of the ProC status of pathogenic versus non-pathogenic bacteria in LPS-treated (Sus-GIO) and untreated GIO (UT-GIO) using GraphPad Prism (San Diego, CA). We have performed two-way ANOVA with Tukey's multiple comparisons using GraphPad Prism. *p<0.05, **p<0.01, ***p<0.001, ****p<0.0001 denotes significance.

[2] = tested on: microbiota-treated GIO bacterial community; assay: Shotgun metagenomics of fecal microbiota-treated GIO; settings: LPS-treated GIO vs GIO without LPS, with fecal microbiota
Description: Our UT-GIO and Sus-GIO were treated with fecal microbiota to generate GIO with a complete gut-microbiome system observed in vivo.^38,39 In this context, we first prepared fecal microbiota, purchased from Discovery Life Sciences (DLS). DLS obtains fecal microbiota samples according to their protocol approved by their internal review board (IRB). Then, 100 mg of fecal microbiota was dissolved with sterile PBS and filtered by a 70 μm cell strainer to remove aggregates. Filtered fecal microbiota was further diluted 1:100 using an intestinal expansion medium without penicillin/streptomycin. […] Microbiota-treated GIO with or without LPS and pathogenic/nonpathogenic bacterial culture media sample was analyzed by University of California, San Diego (UCSD) Microbiome Core to obtain metagenomic profiles.
In total, pathogenic and non-pathogenic UT (untreated) and Sus (susceptible)-GIO samples were processed for total DNA extraction and metagenomic library preparation and sequencing. […] Sequencing data were processed first by performing adapter trimming and human-read filtering via pairwise alignments using minimap2. All reads were uploaded into qiita, and taxonomy was assigned using the Web of Life toolkit (WoLtka) implementation in Qiime2 via QIITA (read more here: https://github.com/qiyunzhu/woltka). […]

[3] = tested on: GIO (gastrointestinal organoids from HiPSCs); assay: Immunocytochemistry of Zo1 (TJP1) and Ki67 in LPS-treated GIO
Text: Immunocytochemistry (ICC) and flow cytometry is a common cellular protein or antigen-detecting and visualization techniques that can recognize the target of interest or specific marker expression in cells via imaging and a series of flow histograms. The antibody is directly or indirectly linked to a reporter, such as a fluorophore or an enzyme. We performed ICC and flow cytometry as a previously established method developed by the PI.^35, 36 Briefly, for flow cytometry, cells were collected and dissociated with trypsin into a single cell and then blocked with 2% mouse serum and staining with conjugated anti-CDX2 antibody (BD Biosciences) as previously established method^11 and run to NovoCyte Flow Cytometer (Agilent Technologies, Santa Clara, CA). We have verified endodermal marker verification using CDX2 expression using flow cytometry. But for ICC, we have grown GIOs on coverslips coated or directly on the 24-well plates. Then cells were washed with PBS (phosphate-buffered saline) and fixed with 4% paraformaldehyde (PFA, Thermo Scientific). After additional washes in PBS, the cells were permeabilized in 0.1% Triton X-100 (Sigma-Aldrich), followed by blocking with 5% BSA (bovine serum albumin) in PBS containing 10% normal goat serum (NGS, Thermofisher Scientific). Next, the cells were incubated overnight with primary antibodies diluted in a blocking solution at […] with an appropriate dilution indicated by the manufacturer. The next day, the cells were washed three times with washing buffer (1×PBS containing 0.05% Tween 20 and 1% NGS). Then cells were incubated for 2 h at 25° C. with a fluorescent secondary antibody (Life Technologies). […] NGL lab-produced GIO followed a similar developmental pathway in the fetus or fetal mouse^37, including smooth muscle contractile ability determined by smoothA and β-actin,^14 GFAP, and MAP2.

[4] = tested on: GIO (gastrointestinal organoids from HiPSCs); assay: MTT cell viability assay of Fresh-GIO and Cryo-GIO; settings: LPS 96 h
Description: We determined GIO viability after the freeze-thaw cycle using a colorimetric assay to evaluate cell metabolic activity with an MTT [3-(4,5-dimethylthiazol-2-yl)-2,5-diphenyltetrazolium bromide] assay, following the manufacturer's instructions for the assay (MilliporeSigma). To perform the reported established MTT assay^40, we grew GIO in 24-well plates and then treated them with or without LPS for 96 h to observe viability and stability. We added lmg/mL of MTT reagent to each −well containing GIO, followed by the 2 h incubation at 37° C. Further, GIO was washed with sterile PBS, followed by the addition of dimethyl sulfoxide (DMSO) in each—well and mixed. After the 10 min incubation, DMSO was absorbed the MTT and run for a plate reader (SpectraMax iD3 Plate Reader, Molecular Devices, San Jose, CA) with the optical absorption density (OD) of 570 nm to determine the amount of MTT binding in the viable cell. This method determined our GIO's viability and stability after the freeze-thaw cycle with or without inflectional susceptible LPS treatment. We calculated the amount of MTT in each well using the following formula: […]

## lipopolysaccharide [LPS]
[1]; LPS 100 μg/mL, 48 h only
  IL-10, IL-1β and IFNγ secretion: upregulated only in 48 h time points; also recorded: upregulated when treated with only 100 μg/mL LPS for 48 h
[1]; LPS 10-100 μg/mL, 24 h and 48 h, dose and time-dependent
  IL-2, IL-6, IL-8, TNF-α, MIP-1α and MIP-1β secretion: upregulated
[1]; any time point or LPS concentration
  IL-13 secretion: unable to detect
[2]
  Change of bacterial community (Bacteroidales bacterium M2): causes a bloom of an unknown Bacteroides sp; also recorded: caused a bloom of unknown Bacteroides sp
[3]; 24-48 h
  Effect on Zo1 immunostaining at earlier time point: could not see any effect on Zo1
[3]; LPS 100 μg/ml, 96 h
  Ki67 (intestinal crypt cell type) expression: decreased
[3]; LPS 50-100 μg/ml, 96 h
  Effect on TJP1 (Zo1) expression: affects GIO TJP1; also recorded: disrupts endothelial tight junction protein
[4]
  Loss of cell viability (MTT): 15-20% and ~20%
